Measured values published in patent US20150159167A1, “Plants Tolerant to HPPD Inhibitor Herbicides” (Bayer CropScience AG, priority 2009, published 2015).

How the values were obtained:
[1] = tested on: tobacco calli containing HPPD SEQ ID No. 7 (Synechococcus sp.); assay: Rooting of calli on media with tembotrione; format: cell-based, Nicotiana tabacum; settings: 6 to 12 weeks
Procedure: The leaf disks were co-cultivated for 2 days with Agrobacterium tumefaciens cells containing either the binary vector FMP38ebv or AtHPPDbv. Then the leaf disks were transferred to a media allowing the regeneration of shoots for 6 weeks on MS (Musharige and Skoog, (1962), Physiol Plant 15(3): 473-497) media supplemented with BAP ([…]; Benzylaminopurine), carbenicillin ([…]), cefotaxine ([…]), kanamycin (75 mg/mL) and tembotrione (10^−6 M)
Regenerated calli were transferred on media to induce the development of roots for 6 to 12 weeks: MS (1/2), supplemented with carbenicillin (250 mg/mL), cefotaxine (250 mg/mL), kanamycin (75 mg/mL), and tembotrione (10^−6 M).
Regenerated shoot calli from a cell transformed with a nucleic acid sequence encoding an HPPD comprising SEQ ID No. 11 (Arabidopsis thaliana) or SEQ ID No. 7 (Synechococcus sp.) were transferred to a media inducing root growth which media was further supplemented with the HPPD inhibitor tembotrione for 6 to 12 weeks.

[2] = tested on: Synechococcus sp. HPPD "SEQ ID No. 5"; assay: HPPD activity in presence of HPPD inhibitors (pI50, % inhibition); format: biochemical
Excerpt: In this content, pI50-value means the log value of the concentration of inhibitor necessary to inhibit 50% of the enzyme activity in molar concentration.

[3] = tested on: T0 rice plants containing FMP38e; assay: Rice glasshouse trial, response to tembotrione; format: in vivo; settings: 100 g AI/ha, 7 DAT
Procedure: T0 rooted plantlets (either selected on phosphinothricin alone or on phosphinothricin supplemented with tembotrione) were transferred to soil in the glasshouse. Following an acclimation period, sufficiently grown plants were treated with the different HPPD inhibitor herbicides. As an example, T0 plants were sprayed with tembotrione of formulation type WP20 100 g AI/ha supplemented with ammonium sulfate and methyl ester raps oil. Seven days after the spray application, the symptoms due to the application of the herbicide were evaluated and compared the symptoms observed on wild type plants submitted to the same treatment.
The plants were classified in three categories based on the phenotype developed in response to the herbicide seven days after the treatment.

[4] = molecular target: T1, Arabidopsis thaliana HPPD "SEQ ID No. 10" (Arabidopsis thaliana, UniProt P93836); assay: HPLC assay of HPPD activity, in vitro kinetic properties; format: biochemical
T1 construct: Preparation of Synechococcus sp; Ala + 6xHis (N); made in house; host or cells: E. coli K-12 BL21 (pQE30-AtHPPD)
T1 sequence (P93836 with tags, fused parts or gaps): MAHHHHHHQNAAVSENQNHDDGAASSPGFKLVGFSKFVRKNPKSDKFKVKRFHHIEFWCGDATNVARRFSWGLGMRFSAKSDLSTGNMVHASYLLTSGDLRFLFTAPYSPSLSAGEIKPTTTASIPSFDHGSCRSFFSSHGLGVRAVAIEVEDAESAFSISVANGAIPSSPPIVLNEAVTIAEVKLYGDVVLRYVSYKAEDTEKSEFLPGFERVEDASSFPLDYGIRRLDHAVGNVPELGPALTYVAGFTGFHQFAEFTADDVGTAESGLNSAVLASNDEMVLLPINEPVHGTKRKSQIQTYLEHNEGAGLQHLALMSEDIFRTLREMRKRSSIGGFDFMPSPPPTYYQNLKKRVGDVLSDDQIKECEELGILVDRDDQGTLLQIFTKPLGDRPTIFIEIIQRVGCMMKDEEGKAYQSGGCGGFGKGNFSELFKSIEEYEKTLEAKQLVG
Procedure: (§1) Km, Vmax, and kcat values for different HPPD enzyme preparations and Ki, K1=Kon, and K−1=Koff for different HPPD inhibitors were determined using a HPLC assay for measurements of HPPD activity. […] All assays were started by the addition of HPPD enzyme to the assay mixture and stopped at a series of times between 0 and 240 s by addition of 200 μl of the reaction mixture to reaction assay tubes containing 20 μl 10% perchloric acid. Precipitated protein was pelleted by a 5 minute centrifugation at 10,000 g.
For Km and Vmax value determinations the initial rates of the HPPD reaction at different substrate concentrations were determined from plots of HGA formed versus time and fitted to the Michaelis-Menten equation for unireactant enzymes using the ID Business Solutions Ltd. (idbs.com) XLfit software suite.
(§2) In below given table 1, “Km” (Michaelis-Menten constant) means the kinetic parameter that is used to characterise an enzyme, and it is defined as the concentration of substrate that permits half maximal rate of the reaction. Km is further defined as the substrate concentration at which the reaction rate reaches half of its maximum value (Vmax/2) where Vmax has the meaning of being the maximum velocity of the reaction.
(§3) Kon=K1 equals the association rate constant of the […] binding and Koff=K−1 equals the rate constant of the enzyme-inhibitor complex dissociation. Ki defines the inhibition constant.

[5] = molecular target: Synechococcus sp. HPPD "SEQ ID No. 5"; assay: as above; format: biochemical; settings: 2 mM HPP
Procedure: as §1, with “g. […] A standard set of concentrations of HGA were used to provide a standard curve in order to calibrate the 292 nm absorbance of the HGA peak versus HGA concentration.” for “g.”
For Km and Vmax value determinations the initial rates of the HPPD reaction at different substrate concentrations were determined from plots of HGA formed versus time and fitted to the Michaelis-Menten equation for unireactant enzymes using the ID Business Solutions Ltd. (idbs.com) XLfit software suite. For the determination of Ki, K1=Kon, and K=−1=Koff values the time-courses of the HPPD reaction at different inhibitor concentrations were fitted to the equations for Mechanism A, competitive inhibition, for tight-binding inhibitors (Cha, S. (1975) Tight-binding inhibitors-I. Kinetic behaviour. Biochemical Pharmacology 24, 2177-2185) using the ID Business Solutions Ltd. XLfit software suite
as §2, §3

## CS(=O)(=O)c1ccc(C(=O)C2C(=O)CCCC2=O)c(Cl)c1COCC(F)(F)F [Tembotrione, 2-[2-chloro-4-(methylsulfonyl)-3-[(2,2,2,-tri-fluoroethoxy)methyl]benzoyl]-1,3-cyclo-hexanedione]
[1]
  % Elongation & rooting on 10^−6 M tembotrione: 80%
[2]; 2 mM HPP, 3 minutes incubation
  pI50: 5.6
[2]; 5.0 × 10^−6 M inhibitor, compared to activity in absence of inhibitor
  percentage of inhibition: 79%
[3]
  Class I (no injuries), number of plants: 9
  Class II (injury: 10-40%), number of plants: 8
  Class III (injury: 41-100%), number of plants: 8
[4]; read-out: k1 (Kon)
  kon: 230000 M⁻¹ s⁻¹
[4]; read-out: k−1 (Koff)
  koff: 0.0035 s⁻¹
[5]
  Ki: 1.2 µM
  k1 (Kon): 41000 M⁻¹ s⁻¹
  k−1 (Koff): 0.05 s⁻¹
